The values that follow come from patent US20060234971A1 (priority 2005, published 2006).

For series [1], the system named is calpain-mediated cleavage of PrP in SMB cells. The series is classed as cell-based, mouse.
Series [2] deals with PrP^Sc accumulation in ScN2a cells. Conditions: cited from earlier work.
Series [3] deals with C1 production in SMB cells. Format: cell-based, mouse.
Series [4] concerns C2 production in SMB cells. The experiment in a line: cells. The series is classed as cell-based, mouse. Conditions: for IC50: read-out: concentration producing 50% inhibition of C2 accumulation (IC50).
Series [5] deals with prion replication in SMB cells. The conditions noted are these: mouse, in vivo.
Series [6] concerns SMB cells.

Several values for one entry are separate records, joined by “and”; a condition that tells them apart may be missing. Equal entries are not always repeated. Where two headings read alike, the source gives them in different places. Peptide text beside a SMILES is read from it. * marks the point of attachment. Cbz = O=C(OCc1ccccc1)*; CH2F = FC*

As for `C[C@H](CCC(=O)O)C[C@H](C)C[C@H](C)C(=O)/C=C(\O)[C@H](C)C[C@H](C)C/C=C/[C@@H](C)[C@@H](O)[C@@H](C)[C@@H](O)C[C@@H]1CC[C@@](C)([C@H]2CC[C@@](C)([C@@H](C)O)O2)O1` [ionomycin], the “increase in C2 levels compared to control” value in series [1] is reported as roughly 7 fold.
As to `CC(=O)N[C@@H](CC(C)C)C(=O)N[C@@H](CC(C)C)C(=O)N[C@H](C=O)CCCNC(=N)N` [leupeptin], the “PrP^Sc accumulation in ScN2a cells” value in series [2] is “affected PrP^Sc accumulation”.
In the case of `CC(C)[C@H](NC(=O)OCc1ccccc1)C(=O)N[C@H](C=O)Cc1ccccc1` [MDL28170, Carbobenzoxy-valinyl-phenylalaninal] (Cbz-Val-Phe-aldehyde), the “C1 levels” value in series [3] is “increased to levels similar to calpain inhibitor IV-treated SMB cells”. Also, in series [4], the C2 by immunoblotting entry is reported as “undetectable”; the “reduction in C2” value is 63±19.7% and 75±6.8%. In addition, the IC50 in series [4] (Mus musculus, SMB) was roughly 4000 nM. The “prion titers in treated SMB cells” value in series [5] is “reduced prion titers”. For the same compound, the “cell toxicity / cell survival” value in series [6] is reported as “cell toxicity is not triggered”.
As for `CCCC[C@@H](C=O)NC(=O)[C@H](CC(C)C)NC(=O)OCc1ccccc1` [calpeptin, Benzyloxycarbonylleucyl-norleucinal], the “reduction in C2” value in series [4] was determined as 71±7.1%. Besides, in series [6], the “cell toxicity / cell survival” value is “cell toxicity is not triggered”.
As for “Z-FY(t-Bu)-DMK [cathepsin L inhibitor III]”, in series [4], the “effect on production of C2” value is recorded as “unaffected”.
On to “Z-FG-NHO-BzOME [cathepsin inhibitor III]”, for which the “effect on production of C2” value in series [4] is “unaffected”.
As to “Cbz-Leu-Leu-Tyr-CH2F [calpain inhibitor IV]”, in series [3], the “C1 levels” value was “C1 levels declined” and the “C1 levels higher than control treated SMB cells” value is roughly 2 fold. In addition, in series [4], the “effect on production of C2” value is “apparently complete elimination of C2” and the IC50 came to 450 nM. Besides, in series [6], the “cell toxicity / cell survival” value is reported as “cell toxicity is not triggered”.
In the case of calpastatin, in series [4], the “levels of C2 lower than control transfected cells” value is given as 64±15%.
In the case of `CNc1ccc2oc(C[C@H]3O[C@@]4(CC[C@H]3C)O[C@H]([C@H](C)C(=O)c3ccc[nH]3)[C@H](C)C[C@H]4C)nc2c1C(=O)O` [A23187], in series [1], the “increase of C2” value came to 3.5 fold.
